Measurements from patent US12274702B2, “Nasal compositions comprising alcaftadine” (ALKEM LABORATORIES LIMITED, priority 2021, dated 2025).

Experiments:
[1] = Pharmacokinetics after intranasal administration in rabbits; format: in vivo, New Zealand white rabbits
Procedure: The pharmacokinetic profiles for Example 1A, 1B and 1C as well as an olapatdine nasal formulation were each determined on 6 male New Zealand white rabbits. The olopatadine nasal formulation (0.6% w/v) was prepared from Olopat Max® 0.7% w/v, where Olopat Max® was diluted to 0.6% w/v by using purified water.
(§1) The study was carried out on total 24 male New Zealand white rabbits, which were segregated into four groups (G1 to G4, 6 rabbits/group). Mild anaesthesia was induced in all rabbits by inhalation of 2% isoflurane. Three groups (G1-G3) of anaesthetized rabbits were intranasally administered 250 μL of alcaftadine once daily using the formulations of Examples 1A, 1B, and 1C. A comparator, 250 μL of olopatadine at a concentration of 0.6% w/v, was intranasally administered once-daily to a fourth group G4 of anaesthetized rabbits.
Sampling details for the test and reference formulations: Approximately 0.5 mL of blood sample from each rabbit was withdrawn via marginal car vein into pre-labelled Eppendorf tubes containing 10% EDTA as an anticoagulant. Blood samples were withdrawn at 0 min, 5 min, 10 min, 15 min, 30 min, 60 min, 120 min, 240 min, 480 min and 1440 min after administration of test and reference formulations.
(§2) Procedure for sample preparation: Collected blood samples were mixed gently and kept on crushed ice. Plasma samples were separated after centrifugation at 3500 rpm for 10 min at 4° C. Plasma separation was carried out within 30 min of sample collection and stored at −70±10° C. The animals were euthanized by intravenous administration of sodium thiopental injection overdose and nasal epithelium was collected. Half of the tissues of nasal epithelium were homogenized using phosphate buffered solution (20% homogenation) for quantification of alcaftadine and olopatidine. The remaining half of the tissues were stored in 10% neutral buffered formalin for detailed gross histopathological examination such as necrosis, inflammation or any changes during necropsy.
Rabbit plasma and nasal epithelial tissue concentrations of alcaftadine or olopatidine were determined using a fit-for-purpose LC-MS/MS method with LLOQ of 0.500 ng/ml or 0.250 ng/mL, respectively. The pharmacokinetic parameters were evaluated using Phoenix WinNonlin® Ent-Version 8.0 by non-compartmental analysis.

[2] = Nasal irritation and histopathology of nasal epithelium after intranasal administration in rabbits; format: in vivo, New Zealand white rabbits; settings: doses 0.312 mg, 0.625 mg and 1.25 mg, all three groups
Procedure: as §1, §2

[3] = single intranasal administration, doses 0.625 to 1.25 mg, rabbits

area under the curve (AUC0-24h) [1, 3]	peak plasma concentrations (Cmax) [1, 3]	time to achieve maximum concentration (Tmax) ([1]; single intranasal instillation, dose 0.625 mg (250 μL of Example 1B), rabbit plasma) [min]	Tmax ([1]; male, New Zealand white, inhaled or intranasal, single intranasal administration of 1.5 mg (250 μL, 0.6% w/v), rabbit plasma, read-out: time to reach peak concentration (Tmax)) [min]	Structure (SMILES)	plasma concentration / systemic exposure ([1]; intranasal, rabbits)	onset of action versus intranasal olopatadine (from Tmax) ([1]; intranasal, rabbits, olopatadine 1.5 mg)	signs or symptoms of inflammation or irritation [2]
dose proportional	dose proportional	4.8	–	CN1CCC(=C2c3ccccc3CCn3c(C=O)cnc32)CC1 [Alcaftadine, 6,11-dihydro-11-(1-methyl-4-piperidinylidene)-5H-imidazo[2,1-b][3]benzazepine-3-carboxaldehyde]	dose proportional with overall low systemic exposure	faster onset of action than intranasal olopatadine	no signs or symptoms of inflammation or irritation were observed
–	–	–	22.8	CN(C)CC/C=C1/c2ccccc2COc2ccc(CC(=O)O)cc21 [olopatadine]	–	–	–
